In US9717725B2, “Use of opioid antagonists” (THE UNIVERSITY OF CHICAGO, priority 2005, dated 2017):
pIC50: −log10 of the molar value. Entries after “also recorded” stand apart in the source; their conditions may differ.

What was measured:
[1] = test system: microvascular endothelial cells; test: VEGF induced proliferation of endothelial cells, combination (Example 10); format: cell-based; details: combination of methylnaltrexone and 5-FU
[2] = test system: SW 480 human colorectal cancer cell line; test: Effects on SW 480 cancer cell line
[3] = test system: human pulmonary microvascular endothelial cells (HPMVEC); test: Human pulmonary microvascular EC migration assay (Transwell); format: cell-based; details: for agonist-induced EC migration (% migration): agonist in lower chamber, Transwell
[4] = test system: human pulmonary microvascular endothelial cells (HPMVEC); test: Human pulmonary microvascular EC proliferation assay (CellTiter96 MTS); format: cell-based; details: for agonist-induced EC proliferation: serum-free media with agonist, MTS assay
VEGF receptor 1 (Flt-1) = test: Tyrosine phosphorylation of VEGF receptor 1 (immunoprecipitation/immunoblot); format: cell-based, human; details: HPMVEC
VEGF receptor 2 (Flk-1) = test: Tyrosine phosphorylation of VEGF receptor 2 (immunoprecipitation/immunoblot); format: cell-based, human; details: HPMVEC
RhoA = RhoA activation assay (RBD bead pull-down, immunoblot); format: cell-based, human; details: EC
VEGF receptor = test: Tyrosine phosphorylation of the VEGF receptor in EC (Example 9); format: cell-based, human; details: for induction of tyrosine phosphorylation of the VEGF receptor: EC
PDGF receptor = test: Tyrosine phosphorylation of the PDGF receptor in EC (Example 9); format: cell-based, human; details: for induction of tyrosine phosphorylation of the PDGF receptor: EC
S1P3 receptor = test: Tyrosine phosphorylation of the S1P3 receptor in EC (Example 9); format: cell-based, human; details: for induction of tyrosine phosphorylation of the S1P3 receptor: EC
mu-opioid receptor = mu-opioid receptor (Homo sapiens, UniProt P35372); test: Serine/threonine phosphorylation of the mu-opioid receptor in EC (Example 9); format: cell-based; details: for induction of serine/threonine phosphorylation of the mu-opioid receptor: EC
Sequence of mu-opioid receptor (P35372 whole entry): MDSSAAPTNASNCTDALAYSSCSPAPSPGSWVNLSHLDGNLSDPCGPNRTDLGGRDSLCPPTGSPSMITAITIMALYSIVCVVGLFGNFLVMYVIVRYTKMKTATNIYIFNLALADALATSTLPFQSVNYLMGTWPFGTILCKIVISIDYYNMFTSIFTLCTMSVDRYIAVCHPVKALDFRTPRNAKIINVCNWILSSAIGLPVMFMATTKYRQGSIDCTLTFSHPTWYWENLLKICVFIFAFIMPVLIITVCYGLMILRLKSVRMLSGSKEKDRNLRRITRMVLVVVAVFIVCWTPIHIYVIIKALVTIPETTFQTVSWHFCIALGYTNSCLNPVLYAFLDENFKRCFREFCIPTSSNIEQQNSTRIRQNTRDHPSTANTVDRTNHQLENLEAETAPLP

tumors = test: Treatment of tumor-bearing mice (Examples 4-7); format: in vivo; details: eight weeks; for tumor growth and angiogenesis: antagonist orally 5 mg/kg/day with morphine 0.5 mg/kg/day; for angiogenesis and tumor growth, combination of opioid, opioid antagonist and anticancer agent: with morphine and bevacizumab (Avastin) 5 mg/kg every 14 days
tumor = test: Study in human cancer patients (Examples 6-7); format: in vivo; details: antagonist orally 5 mg/kg/day for eight weeks with opioid and bevacizumab (Avastin)
[5] = J. Foss, et al.; cited from earlier work
[6] = test system: microvascular endothelial cells; test: VEGF induced migration of endothelial cells, combination (Example 10); format: cell-based; details: combination of methylnaltrexone and Bevacizumab
[7] = test system: Lewis lung carcinoma (LLC) cells; test: LLC cell proliferation in vitro; format: cell-based; details: treatment in vitro with methylnaltrexone
[8] = test system: Lewis lung carcinoma (LLC) cells; test: LLC cell invasion assay (Chemicon Cell Invasion Assay Kit); format: cell-based; details: methylnaltrexone (10 nM or 100 nM)
[9] = test system: Lewis lung carcinoma (LLC) tumor; test: LLC flank tumor model, continuous MNTX infusion; format: in vivo, C57BL/6J mice; details: for appearance of macrometastases in the lungs / appearance of micrometastases in the lungs: continuous infusion 10 mg/kg/day
[10] = doses maintaining plasma levels about 25 and 150 ng/mL (Yuan et al.); cited from earlier work
Flk-1 expression = details: morphine-treated mice versus controls (K. Gupta, personal communication); cited from earlier work
[11] = test system: proliferative retinopathy; details: sickle cell disease (Gupta et al., personal communication); cited from earlier work
[12] = pretreatment with MNTX 0.1 μM, 1 hour
[13] = summary statement, concentration dependence

## O=c1[nH]cc(F)c(=O)[nH]1 [5-FU, 5-fluorouracil]
[1]
  inhibition of VEGF induced proliferation of endothelial cells by the combination: synergistically inhibit
[2]; Homo sapiens, SW480
  pIC50: ~5.00

## C[C@@H](NC(=O)[C@@H](N)Cc1ccc(O)cc1)C(=O)NCC(=O)N(C)[C@@H](Cc1ccccc1)C(=O)NCCO [DAMGO, [D-Ala^2, N-McPhe^4, Gly^5-ol]-enkephalin]
[3]
  agonist-induced EC migration (% migration): induce HPMVEC migration; also recorded: induced
[4]
  agonist-induced EC proliferation: stimulate HPMVEC proliferation; also recorded: induced proliferation
VEGF receptor 1 (Flt-1)
  induction of tyrosine phosphorylation of VEGF receptor 1 (Flt-1): induce tyrosine phosphorylation
VEGF receptor 2 (Flk-1)
  induction of tyrosine phosphorylation of VEGF receptor 2 (Flk-1): induce tyrosine phosphorylation
RhoA
  RhoA activation by agonist: stimulate RhoA activation
VEGF receptor
  induction of tyrosine phosphorylation of the VEGF receptor: induced tyrosine phosphorylation
PDGF receptor
  induction of tyrosine phosphorylation of the PDGF receptor: induced tyrosine phosphorylation
S1P3 receptor
  induction of tyrosine phosphorylation of the S1P3 receptor: induced tyrosine phosphorylation

## CCCCCCCCCCCCC/C=C/[C@@H](O)[C@@H](N)COP(=O)(O)O [S1P, sphingosine 1-phosphate]
[3]
  agonist-induced EC migration (% migration): induced
[4]
  agonist-induced EC proliferation: induced proliferation
RhoA
  RhoA activation by agonist: activation
mu-opioid receptor
  induction of serine/threonine phosphorylation of the mu-opioid receptor: induced serine/threonine phosphorylation

## C[C@H]1CN(C[C@H](Cc2ccccc2)C(=O)NCC(=O)O)CC[C@@]1(C)c1cccc(O)c1 [alvimopan]
tumors
  tumor growth and angiogenesis: reduction in tumor growth and angiogenesis
  angiogenesis and tumor growth, combination of opioid, opioid antagonist and anticancer agent: enhanced result
tumor
  angiogenesis and tumor growth, combination of opioid, opioid antagonist and anticancer agent: enhanced result
[5]
  transpassage across the membrane: some transpassage

## C[N@+]1(CC2CC2)CC[C@]23c4c5ccc(O)c4O[C@H]2C(=O)CC[C@@]3(O)[C@H]1C5 [methylnaltrexone, N-methylnaltrexone]
[3]; 100 nM MNTX, 100 nM agonist, 18 hours
  inhibition of MS, DAMGO and VEGF induced HPMVEC migration: inhibited
[3]; [12]
  inhibition of S1P, VEGF, PDGF, morphine and DAMGO induced EC migration: inhibited
[3]; [13]
  inhibition of opioid- and growth factor-induced migration of endothelial cells: in a concentration dependent manner
[4]; 100 nM MNTX, 100 nM agonist, 24 h
  attenuation of MS, DAMGO and VEGF stimulated HPMVEC proliferation: attenuated
[4]; [12]
  inhibition of S1P, VEGF, PDGF, morphine and DAMGO induced EC proliferation: inhibited
[4]; [13]
  inhibition of opioid- and growth factor-induced proliferation of endothelial cells: in a concentration dependent manner
VEGF receptor 1 (Flt-1)
  attenuation of VEGF induced tyrosine phosphorylation of VEGF receptor 1: attenuates
  block of MS and DAMGO induced tyrosine phosphorylation of VEGF receptor 1 (Flt-1): blocked
VEGF receptor 2 (Flk-1)
  attenuation of VEGF induced tyrosine phosphorylation of VEGF receptor 2: attenuates
  block of MS and DAMGO induced tyrosine phosphorylation of VEGF receptor 2 (Flk-1): blocked
RhoA; agonists morphine, DAMGO, VEGF (S1P, PDGF), listed as MNTX
  inhibition of agonist-induced RhoA activation: inhibited; also recorded: attenuated
VEGF receptor; MNTX pretreatment of EC
  attenuation of agonist induced VEGF receptor phosphorylation: attenuated
PDGF receptor; MNTX pretreatment of EC
  attenuation of agonist induced PDGF receptor phosphorylation: attenuated
S1P3 receptor; MNTX pretreatment of EC
  attenuation of agonist induced S1P3 receptor phosphorylation: attenuated
mu-opioid receptor; MNTX pretreatment of EC
  attenuation of agonist induced mu-opioid receptor phosphorylation: attenuated
[1]
  inhibition of VEGF induced proliferation of endothelial cells by the combination: synergistically inhibit
[6]
  inhibition of VEGF induced migration of endothelial cells by the combination: synergistically inhibit
[7]
  reduction of LLC proliferation: significantly reduced; also recorded: dose-dependent inhibition
[8]
  reduction of LLC invasion: significantly reduced; also recorded: dose-dependent inhibition
[9]
  appearance of macrometastases in the lungs: attenuated
  appearance of micrometastases in the lungs: attenuated
[9]; listed as MNTX
  appearance of macrometastases in the lungs: attenuated; also recorded: inhibition; also recorded: decrease in lung macrometastases
  appearance of micrometastases in the lungs: attenuated; also recorded: inhibition
[9]; infusion 10 mg/kg/day, wild-type mice injected with LLC cells
  attenuation of tumor growth: up to 90%
tumors
  tumor growth and angiogenesis: reduction in tumor growth and angiogenesis
  angiogenesis and tumor growth, combination of opioid, opioid antagonist and anticancer agent: enhanced result
tumor
  angiogenesis and tumor growth, combination of opioid, opioid antagonist and anticancer agent: enhanced result
[10]
  tolerability: well tolerated
[2]; MNTX alone, P<0.01 compared to control
  antiproliferation activity: possesses antiproliferation activity
[2]; with 5-FU 10 μM, P<0.05 compared to 5-FU 10 μM only
  enhancement of 5-FU's tumoricidal effect: enhanced 5-FU's tumoricidal effect

## CN1CC[C@]23c4c5ccc(O)c4O[C@H]2[C@@H](O)C=C[C@H]3[C@H]1C5 [morphine]
[3]
  agonist-induced EC migration (% migration): induced
[3]; listed as MS
  agonist-induced EC migration (% migration): induce HPMVEC migration
[4]
  agonist-induced EC proliferation: induced proliferation
[4]; listed as MS
  agonist-induced EC proliferation: stimulate HPMVEC proliferation
VEGF receptor 1 (Flt-1)
  induction of tyrosine phosphorylation of VEGF receptor 1 (Flt-1): induce tyrosine phosphorylation
VEGF receptor 2 (Flk-1)
  induction of tyrosine phosphorylation of VEGF receptor 2 (Flk-1): induce tyrosine phosphorylation
RhoA
  RhoA activation by agonist: stimulate RhoA activation
RhoA; listed as MS
  RhoA activation by agonist: stimulate RhoA activation
VEGF receptor
  induction of tyrosine phosphorylation of the VEGF receptor: induced tyrosine phosphorylation
PDGF receptor
  induction of tyrosine phosphorylation of the PDGF receptor: induced tyrosine phosphorylation
S1P3 receptor
  induction of tyrosine phosphorylation of the S1P3 receptor: induced tyrosine phosphorylation
Flk-1 expression
  increase in F11 c-1 expression: 10 fold
[11]
  induction of proliferative retinopathy: induced proliferative retinopathy

## Bevacizumab: anti-VEGF mab (Avastin, Genentech)
[6]
  inhibition of VEGF induced migration of endothelial cells by the combination: synergistically inhibit

## PDGF
[3]
  agonist-induced EC migration (% migration): induced
[4]
  agonist-induced EC proliferation: induced proliferation
RhoA
  RhoA activation by agonist: activation
mu-opioid receptor
  induction of serine/threonine phosphorylation of the mu-opioid receptor: induced serine/threonine phosphorylation

## VEGF
[3]
  agonist-induced EC migration (% migration): induce HPMVEC migration; also recorded: induced
[4]
  agonist-induced EC proliferation: stimulate HPMVEC proliferation; also recorded: induced proliferation
RhoA
  RhoA activation by agonist: stimulate RhoA activation
mu-opioid receptor
  induction of serine/threonine phosphorylation of the mu-opioid receptor: induced serine/threonine phosphorylation
